Data published in US20040121992A1, “Therapeutic methods of reducing cholesterol accumulation” (priority 2002, published 2004).
Several values for one entry are separate records, joined by “and”; a condition that tells them apart may be missing. Equal entries are not always repeated. Where two headings read alike, the source gives them in different places.

Columns and labels:
CHO cells = assay type: cell-based; settings: for % new chol / ug cholest. / ug new chl / 372/368: 5 uM, CHO cells; for % new chol / ug cholest. / ug new chl: duplicate samples; for 372/368: ion ratio m/z 372 to m/z 368, duplicate samples
SLOS fibroblasts = assay type: cell-based, human
Description: The effect of 27-hydroxy-7-dehydrocholesterol on cholesterol synthesis was studied in CHO cells (Table 2). SLOS fibroblasts were plated at a density of 375,000 cells in a T-25 flask in DMEM containing 10% fetal bovine serum. After 24 hours, the media was changed to McCoy's 5A containing 7.5% lipoprotein deficient serum and 25% D2O. To these cultures, either 5 μM of 27-hydroxycholesterol or 27-hydroxy-7-dehydrocholesterol in hydroxypropyl-β-cyclodextrin were added. Control cultures had only the vehicle added. Media was changed on day 3 and cell pellets were obtained on day 5. Newly synthesized 7-DHC was determined by a combination of GLC-FID and GLC-MS. At a medium concentration of 5 μM 27-hydroxy-7-dehydrocholesterol, the synthesis rate of 7-DHC fell to less than 2 ng/day/T-25 flask in each cell line. […] In untreated cultures, the rates of 7-DHC synthesis were 326±8 and 1414±88 ng/day/T-25 flask (mean±SD) for A2SLO and 4350SLO respectively.

Compound	% new chol (CHO cells; listed as 27OH)	ug cholest. (CHO cells; listed as 27OH)	ug new chl (CHO cells; listed as 27OH)	372/368 (CHO cells; listed as 27OH)	% new chol (CHO cells)	ug cholest. (CHO cells)	ug new chl (CHO cells)	372/368 (CHO cells)	inhibition of cholesterol synthesis compared with an equimolar amount of 27-hydroxycholesterol (CHO cells; 5 μM, cell culture)	inhibition of cholesterol synthesis (in words) (CHO cells; cell culture assays)	metabolism to 27-hydroxycholesterol in SLOS fibroblasts (SLOS fibroblasts)	synthesis rate of 7-DHC (SLOS fibroblasts; medium concentration 5 μM, each cell line (A2SLO and 4350SLO), untreated 326±8 and 1414±88)
CC(CO)CCC[C@@H](C)[C@H]1CC[C@H]2[C@@H]3CC=C4C[C@@H](O)CC[C@]4(C)[C@H]3CC[C@]12C (stereo partly drawn) [27-hydroxycholesterol, cholest-5-ene-3 β, 27-diol, reference compound]	4.4% and 3.6%	29.9 µg and 33.1 µg	1.3 µg and 1.2 µg	0.013 and 0.011	–	–	–	–	–	–	–	–
CC(CO)CCC[C@@H](C)[C@H]1CC[C@H]2C3=CC=C4C[C@@H](O)CC[C@]4(C)[C@H]3CC[C@]12C (stereo partly drawn) [27-hydroxy-7-dehydrocholesterol, cholesta-5,7-diene-3β-27 diol]	–	–	–	–	2.6% and 2.9%	29.5 µg and 32.6 µg	0.78 µg and 0.95 µg	0.0079 and 0.0087	slightly greater	potent inhibitor of cholesterol synthesis	did not metabolize	less than 2 ng/day/T-25 flask
